Measured values published in patent publication US10723716B2, “Alpha-helix mimetics as modulators of Abeta self-assembly” (New York University, priority 2016, dated 2020).
“Also recorded” adds a separate entry of the source. Read-outs that look alike come from different tables or passages of the source.

What was measured:
Aβ42 [1] = biological target: T1, Aβ42 (Homo sapiens, UniProt P05067); assay: ThT-based kinetic assay of Aβ42 aggregation; format: biochemical; details: for effect on Aβ42 oligomerization/fibrillation (ThT): equimolar ratio
T1 construct: Cleavage of APP results in several Aβ isoforms; The predominant species are Aβ42 and Aβ40; purchased Anaspec (Fremont, Calif., USA)
Excerpt: The aggregation of Aβ42 was monitored using an established exogenous dye, Thioflavin T (ThT) that intercalates between the amyloid fibers along the perpendicular axis without affecting the kinetics of amyloid formation. (see Wolfe, L. S.; Calabrese, M. F.; Nath, A.; Blaho, D. V.; Miranker, A. D.; Xiong, Y. Proc. Natl. Acad. Sci. U.S.A. 2010, 107, 16863-16868; Levine, H. Protein Sci. 1993, 2, 404-410). A representative ThT-based kinetic assay results are depicted in FIG. 2. The oligomerization reaction of Aβ42 was initiated by diluting a 1 mM stock solution of Aβ42 (in DMSO) to a concentration of 20 μM in phosphate buffer (150 mM KCl, 50 mM NaPi, pH 7.4). Aβ42 fibrillation is a nucleation-dependent polymerization process and is characterized by a sigmoidal curve consisting of a lag phase, an elongation phase, and a plateau phase (FIG. 2a). The kinetic reaction was quantified by extracting t50, which is the time required to reach 50% of the maximum fluorescence that results from fibrillation. Under standard conditions the tso for Aβ42 fibrillation was 2.1±0.2 h (FIG. 2a and FIG. 8).
(§1) Kinetic assays were conducted on a FlexStation 3 Multi-Mode Microplate reader from Molecular Devices (Sunnyvale, Calif., USA). Experiments were conducted in triplicate in a 96-well plate with a final volume of 200 μL per well. Every measurement was an average of 50 readings. The aggregation of an amyloidogenic peptide (Aβ40, Aβ42, or IAPP) was initiated by the addition of the peptide from a stock solution (in DMSO, 0.5-1 mM) to phosphate buffer. The final concentration of each peptide was different based on their aggregation. The stoichiometry of ThT dye for each peptide was 0.5:1 (ThT:peptide). Peptide aggregation was monitored by ThT fluorescence (λex=445 nm and λem=485 nm). The blank sample contained all the components of the peptide samples except the peptide. The sample data were processed by subtracting the fluorescence of the blank sample. The fluorescence intensity data was then normalized by setting the maximum value to 1.
(§2) Kinetic assays in the presence of the compounds of the invention were conducted under the same conditions. The small molecules were added from a stock solution (1 mM or 10 mM in DMSO) to keep the final concentration of DMSO less than 1.0% (v/v). Small molecules were added to the wells with ThT and buffer and mixed gently with a pipette before adding the peptide. To keep the conditions identical, an equal amount of DMSO was added to the wells with the peptide-only control reactions.
(§3) Kinetic profiles were processed using Origin (version 9.1). Kinetic curves were fit using the built-in sigmoidal fit. Each run was fit independently to extract the t50 (time required to reach 50% of the maximum fluorescence intensity). Error bars represent standard deviations from the mean of at least three independent experiments.
In the delayed addition experiments, where the oligopyridylamides were added at various time points during Aβ amyloid reaction, the conditions were same (as used for the assays where Aβ was preincubated with the oligopyridylamides). The Aβ oligomerization process was initiated by dissolving Aβ into buffer solution and then oligopyridylamides were added to this solution at indicated time points (depend on the assay) at an equimolar ratio.

IAPP = biological target: T2, IAPP (Homo sapiens, UniProt P10997); assay: ThT-based kinetic assay of IAPP aggregation; format: biochemical; details: for effect on IAPP fibrillation / amyloid formation (ThT): equimolar ratio (IAPP 10 μM, FIG. 25c, 26c, 27m)
T2 construct: purchased Anaspec (Fremont, Calif., USA)
T2 sequence (P10997 34-70 limits assumed): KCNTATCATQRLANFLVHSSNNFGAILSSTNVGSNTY
Protocol: as §1, §2, §3

Aβ42 [2] = biological target: T1, Aβ42; assay: Transmission electron microscopy (TEM) of Aβ42; format: biochemical; details: for Aβ42 oligomers seen by TEM after addition to preformed oligomers: 5 μM Aβ42, compound added to preformed oligomers (2 h), equimolar
Protocol: Aβ42 (5 μM) was incubated in phosphate buffer in the absence and presence of the compounds of the invention at various time intervals and stoichiometric ratios. Aliquots of these samples were then applied to glow-discharged carbon-coated 300-mesh copper grids for 2 min and dried. Grids were negatively stained with uranyl acetate (2%, w/v) and dried. Micrographs of grids were examined on a Phillips CM12 Cryoelectron Microscope equipped with Gatan 4k×2.7k CCD camera at 120-kV accelerating voltage.

Aβ42 [3] = biological target: T1, Aβ42; assay: Dot blot assay with A11 antibody; format: biochemical; details: Aβ42, equimolar ratio, whole time course
Protocol: Samples of Aβ42 at concentrations from 2 μM to 5 μM were incubated at various time intervals in the absence and presence of the compounds of the invention at an equimolar ratio (see FIG. 4j). The samples were then applied to a nitrocellulose membrane and dried at room temperature for 1 h or overnight at 4° C. The membranes were then blocked with 5% nonfat milk in Tris buffer (20 mM Tris, pH 7.4) for 1 h at room temperature. The nitrocellulose membranes were then washed (×3) with 20 mM Tris, pH 7.4 supplemented with 0.01% Tween-20 (TBST) and incubated with polyclonal A11 antibody (1/1000 dilution in 5% nonfat milk in TBST, Life Technologies Corp., Grand Island, N.Y., USA) overnight at 4° C. Samples were then washed (×3) with TBST buffer and incubated with horseradish peroxidase (HRP) conjugated anti-rabbit IgG (1/500 dilution in 5% nonfat free milk in TBST) at r.t. for 1 h. The dot blots were then washed with TBST buffer (×3), developed using the ECL reagent kit (Amersham, Piscataway, N.J., USA), and imaged using a Typhoon FLA 9000 instrument (GE Healthcare Life Sciences, Pittsburgh, Pa., USA) using chemiluminescence settings. A similar experiment was repeated using 6E10 antibody ( 1/1000 dilution in 5% nonfat free milk in TBST, Biolegend, San Diego, Calif., USA) for comparison.

Aβ42 [4] = biological target: T1, Aβ42; assay: ThT-based kinetic assay of Aβ42 aggregation; format: biochemical; details: 5 μM Aβ42, equimolar, compound added at 2 h
[5] = test system: Aβ42 mediated toxicity in mouse neuroblastoma (N2a) cells; assay: Aβ42 mediated toxicity in Neuro-2a cells (MTS cell viability); format: cell-based; details: for IC50: 5 μM Aβ42, N2a cells, read-out: IC50 (concentration required to inhibit 50% cell toxicity induced by 5 μM Aβ42); for cell viability, delayed addition: in % (unit assumed)
[6] = mouse/rat NG108-15, N2a, 5 μM Aβ42 + seeds (10% v/v), 5 μM compound, without compound 31%, read-out: cell viability, seed-induced Aβ42 cytotoxicity

T1 sequence (P05067 672-713 limits assumed): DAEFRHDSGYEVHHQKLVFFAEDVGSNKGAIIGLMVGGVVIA

Compound | effect on Aβ42 oligomerization/fibrillation (ThT) (Aβ42 [1]) | effect on IAPP fibrillation / amyloid formation (ThT) (IAPP) | Aβ42 oligomers seen by TEM after addition to preformed oligomers (Aβ42 [2]) | fibers of Aβ42 seen by TEM (Aβ42 [2]; 5 μM Aβ42, equimolar ratio, after 12 h) | A11 signal intensity of the dots (Aβ42 [3]) | effect on Aβ42 amyloid reaction on delayed addition (Aβ42 [4]) | IC50 ([5]; mouse/rat NG108-15, N2a) [nM] | viability at 5 µM [5, 6] [%] | change in ThT fluorescence intensity in control reaction (Aβ42 [1]; control reaction without Aβ42, matched conditions) | ThT fluorescence intensity characteristic of Aβ42 oligomers (Aβ42 [1]; sub-stoichiometric ratios of 1:0.5 and 1:0.1 (Aβ42:ADH-41)) [%] | effect on aggregation of IAPP (ThT) (IAPP; 20 μM IAPP, equimolar ratio (FIG. 3b, 3c, 13)) | fibers of Aβ42 seen by TEM (Aβ42 [2]; 5 μM Aβ42, 1:0.1 (Aβ42:ADH-41), 24 h) | oligomers/fibers of Aβ42 seen by TEM (Aβ42 [2]; 5 μM Aβ42, 1:1 or 1:0.5 (Aβ42:ADH-41), even after 2 days) | elongated fibers seen by TEM in seed-catalyzed Aβ42 aggregation (Aβ42 [2]; 20 μM Aβ42 + seeds, equimolar ratio, 24 h) | IC50 [5] [nM] | cell viability, delayed addition ([5]; ADH-41 added after 24 h of exposure to 5 μM Aβ42) | cell viability, delayed addition ([5]; ADH-41 added after 48 h of exposure to 5 μM Aβ42) | viability at 5 µM ([5]; mouse/rat NG108-15, N2a, 24 h, read-out: cell viability) [%] | viability at 5 µM ([5]; mouse/rat NG108-15, N2a, read-out: cell viability, delayed addition) [%]
COC(=O)c1ccc(NC(=O)c2ccc(NC(=O)c3ccc(NC(=O)c4ccc([N+](=O)[O-])c(OCC(C)C)n4)c(OCc4ccccc4)n3)c(OCC(=O)O)n2)c(OCC(=O)O)n1 [ADH-31] | wholly suppressed | completely suppressed | No formation of Aβ42 oligomers | no fibers were recorded | weak intensities | effective in inhibiting | 2500 ± 100 | 69 |  |  |  |  |  |  |  |  |  |  | 
COC(=O)c1ccc(NC(=O)c2ccc(NC(=O)c3ccc([N+](=O)[O-])c(OCc4ccccc4)n3)c(OCCCN)n2)c(OCCCN)n1 [ADH-41] | completely inhibited; also recorded: effectively blocks; also recorded: decreased significantly | did not have any effect; also recorded: no effect | No formation of Aβ42 oligomers |  | significantly weaker | effective in inhibiting | 1450 | 63 | no change | < 10 | agonist | sparse population of fibers | no formation of oligomers/fibers | no elongated fibers were observed | 1400 ± 100 | 79±2 | 102±2 | 99 | 93 ± 2
